{"source": "paper PMC12377313", "about": "“New 1E,1′E-hydrazine-bis(phenoxy-1,2,3-triazol-acetamide) derivatives as potent inhibitors against acetylcholinesterase, butyrylcholinesterase, and α-glucosidase” (RSC Advances, 2025)", "key": {"[1]": {"target": "T1, α-glucosidase (Saccharomyces cerevisiae, UniProt P53341)", "T1 sequence (P53341 whole entry)": "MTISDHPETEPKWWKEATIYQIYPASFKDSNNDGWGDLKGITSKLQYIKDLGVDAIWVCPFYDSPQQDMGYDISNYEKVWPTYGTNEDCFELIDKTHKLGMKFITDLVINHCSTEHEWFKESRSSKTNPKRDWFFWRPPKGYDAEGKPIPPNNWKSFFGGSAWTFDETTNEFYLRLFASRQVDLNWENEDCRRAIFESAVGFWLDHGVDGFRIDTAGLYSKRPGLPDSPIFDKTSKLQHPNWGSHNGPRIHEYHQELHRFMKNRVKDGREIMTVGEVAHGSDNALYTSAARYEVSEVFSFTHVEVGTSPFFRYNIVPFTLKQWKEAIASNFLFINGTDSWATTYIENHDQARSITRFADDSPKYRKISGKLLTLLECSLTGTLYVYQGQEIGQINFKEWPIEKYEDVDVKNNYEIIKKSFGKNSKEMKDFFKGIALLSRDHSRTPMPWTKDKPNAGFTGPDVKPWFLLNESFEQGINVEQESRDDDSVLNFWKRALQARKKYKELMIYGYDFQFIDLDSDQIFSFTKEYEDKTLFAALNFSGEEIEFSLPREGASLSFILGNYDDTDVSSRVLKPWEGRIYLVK", "assay": "α-Glucosidase inhibition assay (p-NPG substrate)", "type": "biochemical, yeast", "method": "For this assay, the yeast form of α-glucosidase was used and p-nitrophenyl-α-D-glycopyranoside (p-NPG) was used as the substrate. The required solutions of these materials were prepared in a phosphate buffer solution (pH of 7.4 and a concentration of 5 mM). […] Subsequently, a mixture containing 200 μL of phosphate solution, 50 μL of the substrate, and 5–200 μL of the sample solution was pre-incubated at 35 °C for 3 min for α-glucosidase."}, "[2]": {"target": "T1, α-glucosidase", "assay": "Kinetic study (Lineweaver–Burk plots), α-glucosidase", "type": "biochemical", "method": "In this regard, compound 10k for AChE and BChE and compound 10h for α-glucosidase were selected. The type of inhibition of these compounds was determined by Lineweaver–Burk plots. […] These indicated a competitive type of inhibition for compound 10k."}, "[3]": {"test_system": "HEK293 embryonic kidney cells", "assay": "MTT cell viability assay, HEK293", "type": "cell-based", "conditions": "Homo sapiens, HEK293; 24 h treatment, MTT, mean ± SD (n = 3); read-out: IC50 (μM) HEK-293", "method": "The human neuroblastoma cell line SH-SY5Y (ATCC® CRL-2266™) and HEK293 (ATCC® CRL-1573™) human embryonic kidney cells were grown in Dulbecco's Modified Eagle Medium/Nutrient Mixture F-12 (DMEM/F-12) culture containing 10% heat-inactivated fetal bovine serum (FBS) and 1% antibiotics. The cells were incubated at 37 °C in a humidified atmosphere of 5% CO2. Both cell lines were provided by the American Type Culture Collection (ATCC).[30,31]\nSH-SY5Y (ATCC® CRL-2266™) and HEK293 (ATCC® CRL-1573™) cells were seeded into 96-well plates at a density of 5 × 10^3 cells per well, and allowed to adhere overnight in a humidified incubator at 37 °C with 5% CO2. After attachment, the cells were treated with eight different concentrations of the target compounds (200, 100, 50, 25, 12.5, 6.25, 3.125, and 1.5625 μM), prepared via serial 1 : 2 dilutions, for 24 hours. Each concentration was tested in triplicate.\n(§1) Following treatment, 10 μL of MTT solution (5 mg mL^−1 in PBS) was added to each well and incubated for an additional 4 hours under the same conditions. At the end of the incubation period, the medium containing MTT was carefully removed, and the formazan crystals formed by viable cells were solubilized in 100 μL of DMSO per well. The absorbance was measured at 570 nm using a microplate reader. The net absorbance (after blank subtraction) was used to calculate the percentage cell viability relative to the untreated control cells, which was set at 100%. All results were expressed as mean ± standard deviation (SD) of three independent experiments.[32,33]"}, "[4]": {"test_system": "SH-SY5Y neuroblastoma cells", "assay": "MTT cell viability assay, SH-SY5Y", "type": "cell-based, human", "conditions": "for Selectivity (selectivity index): HEK293 versus SH-SY5Y; for IC50: Homo sapiens, SH-SY5Y, 24 h, 24 h treatment, MTT, mean ± SD (n = 3), read-out: IC50 (μM) SH-SY5Y", "method": "The cells were incubated at 37 °C in a humidified atmosphere of 5% CO2. Both cell lines were provided by the American Type Culture Collection (ATCC).[30,31]\nEach concentration was tested in triplicate.\nas §1"}, "[5]": {"target": "T2, AChE (Homo sapiens, UniProt P22303)", "T2 sequence (P22303 32-614)": "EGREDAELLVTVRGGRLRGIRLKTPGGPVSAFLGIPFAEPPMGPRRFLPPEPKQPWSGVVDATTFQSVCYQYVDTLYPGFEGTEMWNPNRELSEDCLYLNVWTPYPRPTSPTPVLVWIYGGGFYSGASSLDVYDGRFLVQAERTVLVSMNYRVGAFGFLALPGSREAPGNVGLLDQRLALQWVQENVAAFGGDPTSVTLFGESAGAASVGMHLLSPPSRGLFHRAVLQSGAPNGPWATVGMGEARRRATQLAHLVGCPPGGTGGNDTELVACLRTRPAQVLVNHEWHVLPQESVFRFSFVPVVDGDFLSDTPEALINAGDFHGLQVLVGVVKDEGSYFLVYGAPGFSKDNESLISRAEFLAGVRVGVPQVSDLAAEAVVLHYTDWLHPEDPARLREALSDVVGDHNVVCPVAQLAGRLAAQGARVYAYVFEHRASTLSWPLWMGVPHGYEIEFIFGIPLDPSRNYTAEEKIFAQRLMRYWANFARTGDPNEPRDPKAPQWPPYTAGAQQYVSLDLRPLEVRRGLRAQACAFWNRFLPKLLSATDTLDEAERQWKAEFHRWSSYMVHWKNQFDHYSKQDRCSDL", "assay": "biochemical", "type": "biochemical", "conditions": "read-out: IC50 (nM) AChE"}, "[6]": {"target": "T3, BChE (Homo sapiens, UniProt P06276)", "T3 sequence (P06276 29-602)": "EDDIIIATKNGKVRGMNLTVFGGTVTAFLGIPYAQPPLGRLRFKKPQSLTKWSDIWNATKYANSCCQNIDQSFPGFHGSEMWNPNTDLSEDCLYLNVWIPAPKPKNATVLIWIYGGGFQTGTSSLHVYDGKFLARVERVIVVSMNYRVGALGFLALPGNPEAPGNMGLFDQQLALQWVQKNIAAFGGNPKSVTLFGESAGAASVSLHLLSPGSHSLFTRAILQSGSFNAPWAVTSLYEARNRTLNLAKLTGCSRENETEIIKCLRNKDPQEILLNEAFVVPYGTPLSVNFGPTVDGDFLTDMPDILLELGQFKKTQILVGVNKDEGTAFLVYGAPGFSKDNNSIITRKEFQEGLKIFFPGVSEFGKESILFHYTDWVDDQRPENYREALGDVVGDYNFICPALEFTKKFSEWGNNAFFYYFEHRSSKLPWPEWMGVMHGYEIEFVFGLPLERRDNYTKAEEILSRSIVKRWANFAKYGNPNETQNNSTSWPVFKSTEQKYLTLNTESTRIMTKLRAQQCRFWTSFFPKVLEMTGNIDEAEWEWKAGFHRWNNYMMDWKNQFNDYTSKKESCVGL", "assay": "biochemical"}, "[7]": {"target": "T2, AChE", "assay": "Kinetic study (Lineweaver–Burk plots), AChE", "type": "biochemical", "method": "(§2) […]. In this regard, compound 10k for AChE and BChE and compound 10h for α-glucosidase were selected. The type of inhibition of these compounds was determined by Lineweaver–Burk plots. […] These indicated a competitive type of inhibition for compound 10k."}, "[8]": {"target": "T3, BChE", "assay": "Kinetic study (Lineweaver–Burk plots), BChE", "type": "biochemical", "method": "as §2"}}}
{"smiles": "O=C(Cn1cc(COc2ccc(/C=N/N=C/c3ccc(OCc4cn(CC(=O)Nc5ccccc5Cl)nn4)cc3)cc2)nn1)Nc1ccccc1Cl", "note": "[Compound 10h, 2,2′-((((((1E,1′E)-Hydrazine-1,2-diylidenebis(methaneylylidene))bis(4,1-phenylene))bis(oxy))bis(methylene))bis(1H-1,2,3-triazole-4,1-diyl))bis(N-(2-chlorophenyl)acetamide)]", "values": [{"measurement": "IC50", "setting": "[1]", "result": "23.9 ± 3.42", "unit": "nM"}, {"measurement": "type of inhibition against α-glucosidase", "setting": "[2]", "result": "non-competitive"}, {"measurement": "IC50", "setting": "[3]", "result": "78.38 ± 0.57", "unit": "µM"}, {"measurement": "Selectivity (selectivity index)", "setting": "[4]", "result": 10.6}, {"measurement": "IC50", "setting": "[4]", "result": "7.42 ± 0.07", "unit": "µM"}, {"measurement": "IC50", "setting": "[5]", "result": "118 ± 9.17", "unit": "nM"}, {"measurement": "IC50", "setting": "[6]", "result": "19.4 ± 0.65", "unit": "nM"}]}
{"smiles": "O=C(Cn1cc(COc2ccc(/C=N/N=C/c3ccc(OCc4cn(CC(=O)Nc5ccc(Cl)cc5Cl)nn4)cc3)cc2)nn1)Nc1ccc(Cl)cc1Cl", "note": "[Compound 10k, 2,2′-((((((1E,1′E)-Hydrazine-1,2-diylidenebis(methaneylylidene))bis(4,1-phenylene))bis(oxy))bis(methylene))bis(1H-1,2,3-triazole-4,1-diyl))bis(N-(2,4-dichlorophenyl)acetamide)]", "values": [{"measurement": "IC50", "setting": "[1]", "result": "46.1 ± 3.26", "unit": "nM"}, {"measurement": "IC50", "setting": "[3]", "result": "81.71 ± 0.56", "unit": "µM"}, {"measurement": "Selectivity (selectivity index)", "setting": "[4]", "result": 10.1}, {"measurement": "IC50", "setting": "[4]", "result": "8.11 ± 0.07", "unit": "µM"}, {"measurement": "type of inhibition against AChE", "setting": "[7]", "result": "competitive"}, {"measurement": "IC50", "setting": "[5]", "result": "105 ± 7.32", "unit": "nM"}, {"measurement": "IC50", "setting": "[6]", "result": "10.1 ± 1.08", "unit": "nM"}, {"measurement": "type of inhibition against BChE", "setting": "[8]", "result": "competitive"}]}
